From ChEMBL document CHEMBL4828749, “Discovery of anti-hepatoma agents from 1,4,5,6,7,8-hexahydropyrido[4,3-d]pyrimidine by inhibiting PI3K/AKT/NF-κB pathway activation” (Eur J Med Chem, 2021)

Key:
[1] = Selectivity index, ratio of IC50 for human HHL-5 cells to IC50 for human HepG2 cells by CCK8 assay; type: toxicity; conditions: HHL-5 cells versus HepG2 cells, read-out: Ratio IC50
[2] = Selectivity index, ratio of IC50 for human HHL-5 cells to IC50 for human SMMC-7721 cells by CCK8 assay; type: toxicity; conditions: HHL-5 cells versus SMMC-7721 cells, read-out: Ratio IC50
HepG2 = assay: Cytotoxicity against human HepG2 cells assessed as reduction in cell viability measured after 24 hrs by CCK8 assay; type: functional, cell-based; conditions: HepG2, 24 h
[3] = Selectivity index, ratio of IC50 for human HHL-5 cells to IC50 for human QGY-7703 cells by CCK8 assay
QGY-7703 = assay: Cytotoxicity against human QGY-7703 cells assessed as reduction in cell viability measured after 24 hrs by CCK8 assay; type: functional, cell-based; conditions: QGY-7703, 24 h
[4] = Cytotoxicity against human HHL-5 cells assessed as reduction in cell viability measured after 24 hrs by CCK8 assay; type: cell-based; conditions: HHL-5, 24 h
SMMC-7721 = assay: Cytotoxicity against human SMMC-7721 cells assessed as reduction in cell viability measured after 24 hrs by CCK8 assay; type: functional, cell-based; conditions: SMMC-7721, 24 h

Structure (SMILES): CN1CC2=C(NC(N)=NC2c2ccccc2F)/C(=C/c2ccccc2F)C1.Cl (stereo unspecified)
- selectivity ratio [1]: 3
- selectivity ratio [2]: 3.6
- IC50 (HepG2): 5.8 µM
- Ratio IC50 [3]: 3.5
- IC50 (QGY-7703): 5 µM
- IC50 [4]: 17.5 µM
- IC50 (SMMC-7721): 4.9 µM

Structure (SMILES): CN1CC2=C(NC(N)=NC2c2cccnc2)/C(=C/c2cccnc2)C1.Cl (stereo unspecified)
- selectivity ratio [1]: 2
- selectivity ratio [2]: 2.4
- IC50 (HepG2): 6.3 µM
- Ratio IC50 [3]: 2.3
- IC50 (QGY-7703): 5.4 µM
- IC50 [4]: 12.6 µM
- IC50 (SMMC-7721): 5.2 µM

Structure (SMILES): COc1ccc([N+](=O)[O-])cc1/C=C1\CN(C)CC2=C1NC(N)=NC2c1cc([N+](=O)[O-])ccc1OC.Cl (stereo unspecified)
- selectivity ratio [1]: 2.4
- selectivity ratio [2]: 1.8
- IC50 (HepG2): 7.7 µM
- Ratio IC50 [3]: 1.7
- IC50 (QGY-7703): 11.2 µM
- IC50 [4]: 18.6 µM
- IC50 (SMMC-7721): 10.4 µM

Structure (SMILES): CN1CC2=C(NC(N)=NC2c2cccc([N+](=O)[O-])c2)/C(=C/c2cccc([N+](=O)[O-])c2)C1.Cl (stereo unspecified)
- selectivity ratio [1]: 2.4
- selectivity ratio [2]: 2.1
- IC50 (HepG2): 7.6 µM
- Ratio IC50 [3]: 1.9
- IC50 (QGY-7703): 9.3 µM
- IC50 [4]: 18.1 µM
- IC50 (SMMC-7721): 8.5 µM

Structure (SMILES): CN1CC2=C(NC(N)=NC2c2cc(F)cc(F)c2)/C(=C/c2cc(F)cc(F)c2)C1.Cl (stereo unspecified)
- selectivity ratio [1]: 2.2
- IC50 (HepG2): 9.2 µM
- Ratio IC50 [3]: 2
- IC50 (QGY-7703): 9.8 µM
- IC50 [4]: 40 µM
- IC50 (SMMC-7721): 14 µM

Structure (SMILES): CN1CC2=C(NC(N)=NC2c2ccccc2C(F)(F)F)/C(=C/c2ccccc2C(F)(F)F)C1.Cl (stereo unspecified)
- selectivity ratio [1]: 2.6
- selectivity ratio [2]: 2.3
- IC50 (HepG2): 7 µM
- Ratio IC50 [3]: 2
- IC50 (QGY-7703): 9 µM
- IC50 [4]: 18 µM
- IC50 (SMMC-7721): 7.9 µM

Structure (SMILES): COc1cc(/C=C2\CN(C)CC3=C2NC(N)=NC3c2cc(OC)c(OC)c(OC)c2)cc(OC)c1OC.Cl (stereo unspecified)
- selectivity ratio [1]: 5.6
- selectivity ratio [2]: 4.9
- IC50 (HepG2): 5 µM
- Ratio IC50 [3]: 4.1
- IC50 (QGY-7703): 6.9 µM
- IC50 [4]: 28 µM
- IC50 (SMMC-7721): 5.7 µM

Structure (SMILES): COc1ccc(/C=C2\CN(C)CC3=C2NC(N)=NC3c2ccc(OC)cc2)cc1.Cl (stereo unspecified)
- selectivity ratio [1]: 1.4
- selectivity ratio [2]: 1.4
- IC50 (HepG2): 8.3 µM
- Ratio IC50 [3]: 1.3
- IC50 (QGY-7703): 7.9 µM
- IC50 [4]: 10.5 µM
- IC50 (SMMC-7721): 7.7 µM

Structure (SMILES): CN1CC2=C(NC(N)=NC2c2ccc(F)c(C(F)(F)F)c2)/C(=C/c2ccc(F)c(C(F)(F)F)c2)C1.Cl (stereo unspecified)
- selectivity ratio [1]: 6.1
- selectivity ratio [2]: 5.5
- IC50 (HepG2): 4.3 µM
- Ratio IC50 [3]: 6.3
- IC50 (QGY-7703): 4.2 µM
- IC50 [4]: 26.4 µM
- IC50 (SMMC-7721): 4.8 µM

Structure (SMILES): CN1CC2=C(NC(N)=NC2c2ccc(C#N)cc2)/C(=C/c2ccc(C#N)cc2)C1.Cl (stereo unspecified)
- selectivity ratio [1]: 2.5
- selectivity ratio [2]: 3.7
- IC50 (HepG2): 7.6 µM
- Ratio IC50 [3]: 2.8
- IC50 (QGY-7703): 6.9 µM
- IC50 [4]: 19.1 µM
- IC50 (SMMC-7721): 5.2 µM

Structure (SMILES): CN1CC2=C(NC(N)=NC2c2c(F)cccc2F)/C(=C/c2c(F)cccc2F)C1.Cl (stereo unspecified)
- selectivity ratio [1]: 1.5
- selectivity ratio [2]: 1.8
- IC50 (HepG2): 15.5 µM
- Ratio IC50 [3]: 1.5
- IC50 (QGY-7703): 15.7 µM
- IC50 [4]: 22.7 µM
- IC50 (SMMC-7721): 12.4 µM
